Results reported in ChEMBL document CHEMBL1128470, “Novel angiotensin II receptor antagonists. Design, synthesis, and in vitro evaluation of dibenzo[a,d]cycloheptene and dibenzo[b,f]oxepin derivatives. Searching for bioisosteres of biphenylyltetrazole using a three-dimensional search technique” (J Med Chem, 1995).

Each compound was assayed against T1, Type-1 angiotensin II receptor (Homo sapiens, UniProt P30556) (assay: Ability to displace [125I]AII binding to COS cells transfected with a cDNA encoding human Angiotensin II receptor, type 1).
T1 sequence (P30556 whole entry): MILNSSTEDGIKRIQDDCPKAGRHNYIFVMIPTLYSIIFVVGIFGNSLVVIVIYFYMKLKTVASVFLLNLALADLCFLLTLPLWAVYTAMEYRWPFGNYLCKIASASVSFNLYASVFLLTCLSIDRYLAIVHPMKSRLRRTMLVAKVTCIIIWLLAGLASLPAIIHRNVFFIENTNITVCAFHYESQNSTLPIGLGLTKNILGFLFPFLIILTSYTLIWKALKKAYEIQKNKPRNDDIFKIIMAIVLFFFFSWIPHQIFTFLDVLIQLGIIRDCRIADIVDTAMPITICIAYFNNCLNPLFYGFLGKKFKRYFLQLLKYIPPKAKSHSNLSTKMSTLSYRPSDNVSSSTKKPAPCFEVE
Format: cell-based

Ki	SMILES
12 nM	CCCCc1nc(Cl)c(C=O)n1Cc1ccc2c(-c3nnn[nH]3)cc3ccccc3c(=O)c2c1
2.1 nM	CCCCc1nc(Cl)c(C(=O)O)n1Cc1ccc2c(-c3nnn[nH]3)cc3ccccc3c(=O)c2c1
4.3 nM	Cc1cc(OCc2ccc3c(-c4nnn[nH]4)cc4ccccc4c(=O)c3c2)c2c(n1)CCCC2
1.3 nM	CCc1cc(OCc2ccc3c(-c4nnn[nH]4)cc4ccccc4c(=O)c3c2)c2c(n1)CCCC2
2.7 nM	CCOc1nc2cccc(C(=O)O)c2n1Cc1ccc2c(-c3nnn[nH]3)cc3ccccc3c(=O)c2c1
9.6 nM	CCCCC(=O)N(Cc1ccc2c(c1)Oc1ccccc1C=C2c1nnn[nH]1)[C@H](C(=O)O)C(C)C
4.3 nM	CCOC(=O)c1c(OCc2ccc3c(-c4nnn[nH]4)cc4ccccc4c(=O)c3c2)cc(C)nc1C
0.65 nM	CCc1cc(OCc2ccc3c(-c4nnn[nH]4)cc4ccccc4c(=O)c3c2)c2ccccc2n1
2.7 nM	CCc1cc(OCc2ccc3c(-c4nnn[nH]4)cc4ccccc4c(=O)c3c2)c2cc(C(=O)O)ccc2n1
0.7 nM	CCCc1nc2c(C)cc(C)nc2n1Cc1ccc2c(c1)Oc1ccccc1C=C2c1nnn[nH]1
0.66 nM	CCc1nc2c(C)cc(C)nc2n1Cc1ccc2c(-c3nnn[nH]3)cc3ccccc3c(=O)c2c1
1.1 nM	CCc1cc(NCc2ccc3c(-c4nnn[nH]4)cc4ccccc4c(=O)c3c2)n2nccc2n1
8.7 nM	CCCCC(=O)N(Cc1ccc2c(-c3nnn[nH]3)cc3ccccc3c(=O)c2c1)[C@H](C(=O)O)C(C)C
3.9 nM	CCOc1nc2cccc(C(=O)O)c2n1Cc1ccc2c(c1)Oc1ccccc1C=C2c1nnn[nH]1
0.29 nM	CCCc1nc2c(C)cc(C)nc2n1Cc1ccc2c(-c3nnn[nH]3)cc3ccccc3c(=O)c2c1
0.49 nM	CCCc1nc2c(C)cc(C)nc2n1Cc1ccc2c(c1)Cc1ccccc1C=C2c1nnn[nH]1
0.45 nM	Cc1cc(C)c2nc(C3CC3)n(Cc3ccc4c(-c5nnn[nH]5)cc5ccccc5c(=O)c4c3)c2n1
2.9 nM	CCOC(=O)c1c(NCc2ccc3c(-c4nnn[nH]4)cc4ccccc4c(=O)c3c2)cc(C)nc1C
0.48 nM	CCc1cc(OCc2ccc3c(-c4nnn[nH]4)cc4ccccc4c(=O)c3c2)c2nc(OC)ccc2n1
